The values that follow come from publication PMC11513842, “Development of an orally bioavailable CDK12/13 degrader and induction of synthetic lethality with AKT pathway inhibition” (Cell Reports Medicine, 2024).

The structures appear in SMILES notation.

Holding throughout (assay type): in vivo, mouse
In assay [1] the test system is castrated VCaP xenograft (VCaP-CRPC). Nature of the assay: VCaP castration-resistant prostate cancer xenograft efficacy. As to conditions: castrated VCaP xenograft, 31 days; YJ1206 p.o. 100 mg/kg 3x/week, uprosertib p.o. 15 mg/kg 5x/week. The method, then: (§1) Six-week-old male CB17SCID mice obtained from Charles River (Stock # 236), were used to establish subcutaneous tumors on both dorsal flanks. Tumor dimensions were measured biweekly using digital calipers, applying the formula (π/6) (L × W^2), where L and W represent tumor length and width, respectively. At the study conclusion, mice were euthanized, and tumors were excised and weighed. The University of Michigan Institutional Animal Care and Use Committee (IACUC) approved all in vivo studies.
For the VCaP castration-resistant tumor model, 3×10^6 VCaP cells were subcutaneously injected into both dorsal flanks of mice using a serum-free medium mixed with 50% Matrigel (BD Biosciences). Upon tumors reaching palpable size (∼200 mm^3), animals underwent castration. When tumors regrew to their pre-castration size, mice were randomized for treatment with 30 mg/kg YJ9069 or vehicle via intravenous injection or 100 mg/kg YJ1206 or vehicle, […]

The test system of assay [2] is PC310 PDX. As to the kind of experiment: PC310 patient-derived xenograft efficacy. Conditions: YJ1206 p.o. 100 mg/kg 3x/week, uprosertib p.o. 15 mg/kg 5x/week. The method, then: as §1
WA74 PDX model was developed at the University of Michigan during collection of a rapid autopsy case as part of the Michigan Legacy Tissue Program (MLTP). PC310 PDX model was obtained from Erasmus Medical Center, Rotterdam, the Netherlands. Both PDX lines were propagated in male CB17SCID mice by surgically implanting 2 mm^3 tumor fragments, coated with 100% Matrigel, into both flanks of mice. When tumors reached approximately 200 mm^3, mice were randomized into treatment groups. These groups received either 30 mg/kg YJ9069 via intravenous injection or 100 mg/kg YJ1206 by oral gavage, both administered three times per week, with or without 15 mg/kg uprosertib by oral gavage five days per week for 3–4 weeks. In accordance with IACUC guidelines, the maximum tumor size was limited to 2.0 cm in any dimension, and mice were euthanized if xenografts reached this endpoint.

Assay [3] concerns castrated VCaP and 22Rv1 CDX models. Nature of the assay: Castrated VCaP and 22Rv1 CDX models, combination efficacy. Conditions: YJ1206 p.o. 100 mg/kg 3x/week, uprosertib p.o. 15 mg/kg 5x/week. The method, then:
as §1
For the VCaP castration-resistant tumor model, 3×10^6 VCaP cells were subcutaneously injected into both dorsal flanks of mice using a serum-free medium mixed with 50% Matrigel (BD Biosciences). Upon tumors reaching palpable size (∼200 mm^3), animals underwent castration. When tumors regrew to their pre-castration size, mice were randomized for treatment with 30 mg/kg YJ9069 or vehicle via intravenous injection or 100 mg/kg YJ1206 or vehicle, with or without 15 mg/kg uprosertib by oral gavage. […]
For the 22Rv1 castration-resistant tumor model, mice underwent castration and then 12 days of recovery. Subsequently, 1 × 10^6 22Rv1 cells were subcutaneously injected into both dorsal flanks using a serum-free medium with 50% Matrigel (BD Biosciences). […]

`Cn1ncc(Cl)c1-c1cc(C(=O)N[C@H](CN)Cc2ccc(F)c(F)c2)oc1Cl` [uprosertib, reference compound]: the “progressive disease (PD), waterfall plot (RECIST)” value in assay [1] is recorded as 100%. Moreover, in assay [2], the “progressive disease (PD), waterfall plot (RECIST)” value is reported as 100% and the tumor growth inhibition entry is “only moderate or mild tumor inhibition”. In addition, in assay [3], the anti-tumor efficacy result is on record as “moderate anti-tumor efficacy”.
